According to patent US20230072421A1, “TARGETED RADIOPHARMACEUTICALS FOR THE DIAGNOSIS AND TREATMENT OF PROSTATE CANCER” (Bayer AS, priority 2019, published 2023):

Experiments:
[1] = Biodistribution study in LNCaP tumor-bearing mice (Th227 counted in organs); format: in vivo, SCID mice; conditions: 500 kBq/kg; for Th-227 in Blood / Th-227 in Femur and tibia / Th-227 in Kidneys / Th-227 in Liver / Th-227 in Salivary gland / Th-227 in Spleen / Th-227 in Tumor / Th-227 in prostate: study b2999
Experimental: (§1) SCID mice were randomly assigned to experimental groups, ten animals per group (efficacy) or n=3-5 per time point of biodistribution study. At the initiation of the study, a testosterone pellet was subcutaneously transplanted, the animals were shaved, tattooed and each cage was labeled with the cage number, study number and number of animals per cage.
(§2) LNCaP human prostate cancer cells were cultured as described according to the supplier's protocols. Cells were harvested for transplantation in a subconfluent (70%) state. Animals were injected with 5×10^6 LNCaP cells suspended in 100% Matrigel subcutaneously into the flank of the mice.
Biodistribution study: When tumors reached a predetermined size in mice of ˜50 mm^2 animals were randomized into groups (n=3 animals/time point) and the radioactive compound was once applied intravenously. The i.v. application volume was 100 μl/mice.
At the predetermined time point, n=3 animals were sacrificed, the organs removed, weight and measured in a Germanium detector to count the Th227 in the sample.

C4-2 cells = assay: Cell proliferation assay (CellTiter-Glo, 5-day exposure), C4-2; format: cell-based; conditions: C4-2, 1000 cells/well, Th-227 labelled at 375 kBq/nmol, mean of 1 to 6 experiments
Experimental: (§3) Inhibition of cell proliferation of Thorium-227 labeled PMSA SMOL ligands was tested different prostate cancer cell lines, namely 22Rv1, VCaP, C4-2 (all from ATCC, Manassas, Va., USA) and LNCaP (DMSZ, Braunschweig). Cells were seeded using the following conditions in 384 well plates (Corning) in 30 μl of growth media at 4000 cells/well for VCaP cells and 1000 cells/well for 22Rv1, C4-2 and LNCaP cells.
(§4) Cells were cultivated an incubator at 37° C. and 5% C02 over night. […] In sister plates cell viability at treatment start (d=0) was determined using CellTiter-Glo® assay (CTG, Promega, Madison, Wis., USA), by adding 30 μl per well CTG solution, incubation for 10 min and reading of Luminescence in a PheraStarFSX instrument (BMG Labtech). After a 5-day exposure in the presenced of test compounds, cell viability of treated or untreated control cells was determined again using CellTiter-Glo® assay (Promega, Madison, Wis., USA). […] The DRC software is a Biobook Spreadsheet that was developed by Bayer AG and Bayer Business Services on the IDBS E-Workbook Suite platform (IDBS: ID Business Solutions Ltd., Guildford, UK).

[2] = tested on: LNCaP human prostate cancer cells; assay: LNCaP xenograft efficacy study (T/C tumor area); format: in vivo, SCID mice; conditions: Example I
Experimental: as §1, §2
Efficacy study: When tumors reached a predetermined size in mice of 35-50 mm^2 animals were randomized into treatment and control groups (n=10 animals/group) and treatment with the defined radioactive dose was started. The i.v. application volume was 100 μl/mice.
Tumor response was assessed by determination of the tumor area (product of the longest diameter and its perpendicular) using a caliper. The animal body weight was monitored as a measure for treatment-related toxicity. Measurement of tumor area and body weight was performed two to three times weekly.
Animals were sacrificed when showing signs of toxicity (>20% body weight loss) or when tumors reached a size of approximately 200 mm^2.
Tumor growth inhibition is presented as T/C ratio (Treatment/Control) calculated with tumor areas when the vehicle control group had to be closed.

VCaP cells = assay: Cell proliferation assay (CellTiter-Glo, 5-day exposure), VCaP; format: cell-based; conditions: 4000 cells/well, Th-227 labelled at 375 kBq/nmol, mean of 1 to 6 experiments
Experimental: as §3, §4

22Rv1 cells = assay: Cell proliferation assay (CellTiter-Glo, 5-day exposure), 22Rv1; format: cell-based; conditions: 22Rv1, 1000 cells/well, Th-227 labelled at 375 kBq/nmol, mean of 1 to 6 experiments
Experimental: as §3, §4

**Q.** Which “Background in blood, liver and spleen (in words)” value ([1]; comparison of % injected dose per gram tissue) does the source give for `O=C(O)CCC(NC(=O)NC(CCCCNC(=O)C(Cc1ccc2ccccc2c1)NC(=O)C1CCC(CNC(=S)Nc2ccc(CC(CN(CCNC(=O)c3ccn(CCO)c(=O)c3[O-])CCNC(=O)c3ccn(CCO)c(=O)c3[O-])CN(CCNC(=O)c3ccn(CCO)c(=O)c3[O-])CCNC(=O)c3ccn(CCO)c(=O)c3[O-])cc2)CC1)C(=O)O)C(=O)O.[227Th+4]` (centres unmarked) [Example 1-F-227Th] here?
**A.** highest background

**Q.** What about the “Th-227 in Blood” value ([1]; 0.25 h) of the same compound?
**A.** 4.80 % ID Th-227/g organ

**Q.** And the “Th-227 in Femur and tibia” value ([1]; 0.25 h)?
**A.** 1.46 % ID Th-227/g organ

**Q.** What about the “Th-227 in Kidneys” value ([1]; 0.25 h) of the same compound?
**A.** 51.79 % ID Th-227/g organ

**Q.** And the “Th-227 in Liver” value ([1]; 0.25 h)?
**A.** 2.63 % ID Th-227/g organ

**Q.** And the “Th-227 in Salivary gland” value ([1]; 0.25 h)?
**A.** 0.31 % ID Th-227/g organ

**Q.** What about the “Th-227 in Spleen” value ([1]; 0.25 h) of the same compound?
**A.** 2.35 % ID Th-227/g organ

**Q.** And the “Th-227 in Tumor” value ([1]; 0.25 h)?
**A.** 9.36 % ID Th-227/g organ

**Q.** What about the “Th-227 in prostate” value ([1]; 0.25 h) of the same compound?
**A.** 3.62 % ID Th-227/g organ

**Q.** And the “Th-227 in Blood” value ([1]; 1 hr)?
**A.** 2.28 % ID Th-227/g organ

**Q.** And the “Th-227 in Femur and tibia” value ([1]; 1 hr)?
**A.** 1.68 % ID Th-227/g organ

**Q.** What about the “Th-227 in Kidneys” value ([1]; 1 hr) of the same compound?
**A.** 58.96 % ID Th-227/g organ

**Q.** What about the “Th-227 in Liver” value ([1]; 1 hr) of the same compound?
**A.** 2.41 % ID Th-227/g organ

**Q.** What about the “Th-227 in Salivary gland” value ([1]; 1 hr) of the same compound?
**A.** 2.68 % ID Th-227/g organ

**Q.** What about the “Th-227 in Spleen” value ([1]; 1 hr) of the same compound?
**A.** 1.86 % ID Th-227/g organ

**Q.** And the “Th-227 in Tumor” value ([1]; 1 hr)?
**A.** 10.58 % ID Th-227/g organ

**Q.** And the “Th-227 in prostate” value ([1]; 1 hr)?
**A.** 4.83 % ID Th-227/g organ

**Q.** And the “Th-227 in Blood” value ([1]; 6 hr)?
**A.** 0.35 % ID Th-227/g organ

**Q.** What about the “Th-227 in Femur and tibia” value ([1]; 6 hr) of the same compound?
**A.** 1.30 % ID Th-227/g organ

**Q.** And the “Th-227 in Kidneys” value ([1]; 6 hr)?
**A.** 67.34 % ID Th-227/g organ

**Q.** And the “Th-227 in Liver” value ([1]; 6 hr)?
**A.** 2.19 % ID Th-227/g organ

**Q.** What about the “Th-227 in Salivary gland” value ([1]; 6 hr) of the same compound?
**A.** 1.48 % ID Th-227/g organ

**Q.** What about the “Th-227 in Spleen” value ([1]; 6 hr) of the same compound?
**A.** 1.51 % ID Th-227/g organ

**Q.** And the “Th-227 in Tumor” value ([1]; 6 hr)?
**A.** 13.03 % ID Th-227/g organ

**Q.** What about the “Th-227 in prostate” value ([1]; 6 hr) of the same compound?
**A.** 1.97 % ID Th-227/g organ

**Q.** And the “Th-227 in Blood” value ([1]; 24 h)?
**A.** 0.06 % ID Th-227/g organ

**Q.** And the “Th-227 in Femur and tibia” value ([1]; 24 h)?
**A.** 0.88 % ID Th-227/g organ

**Q.** What about the “Th-227 in Kidneys” value ([1]; 24 h) of the same compound?
**A.** 34.39 % ID Th-227/g organ

**Q.** What about the “Th-227 in Liver” value ([1]; 24 h) of the same compound?
**A.** 2.49 % ID Th-227/g organ

**Q.** What about the “Th-227 in Salivary gland” value ([1]; 24 h) of the same compound?
**A.** 0.75 % ID Th-227/g organ

**Q.** And the “Th-227 in Spleen” value ([1]; 24 h)?
**A.** 0.94 % ID Th-227/g organ

**Q.** What about the “Th-227 in Tumor” value ([1]; 24 h) of the same compound?
**A.** 6.05 % ID Th-227/g organ

**Q.** And the “Th-227 in prostate” value ([1]; 24 h)?
**A.** 0.34 % ID Th-227/g organ

**Q.** And the “Th-227 in Blood” value ([1]; 72 h)?
**A.** 0.02 % ID Th-227/g organ

**Q.** And the “Th-227 in Femur and tibia” value ([1]; 72 h)?
**A.** 0.79 % ID Th-227/g organ

**Q.** What about the “Th-227 in Kidneys” value ([1]; 72 h) of the same compound?
**A.** 12.99 % ID Th-227/g organ

**Q.** And the “Th-227 in Liver” value ([1]; 72 h)?
**A.** 1.96 % ID Th-227/g organ

**Q.** What about the “Th-227 in Salivary gland” value ([1]; 72 h) of the same compound?
**A.** 0.73 % ID Th-227/g organ

**Q.** What about the “Th-227 in Spleen” value ([1]; 72 h) of the same compound?
**A.** 1.14 % ID Th-227/g organ

**Q.** What about the “Th-227 in Tumor” value ([1]; 72 h) of the same compound?
**A.** 3.40 % ID Th-227/g organ

**Q.** And the “Th-227 in prostate” value ([1]; 72 h)?
**A.** 0.68 % ID Th-227/g organ

**Q.** What about the “Th-227 in Blood” value ([1]; 168 h) of the same compound?
**A.** 0.00 % ID Th-227/g organ

**Q.** What about the “Th-227 in Femur and tibia” value ([1]; 168 h) of the same compound?
**A.** 1.07 % ID Th-227/g organ

**Q.** And the “Th-227 in Kidneys” value ([1]; 168 h)?
**A.** 6.79 % ID Th-227/g organ

**Q.** And the “Th-227 in Liver” value ([1]; 168 h)?
**A.** 2.14 % ID Th-227/g organ

**Q.** And the “Th-227 in Salivary gland” value ([1]; 168 h)?
**A.** 0.74 % ID Th-227/g organ

**Q.** And the “Th-227 in Spleen” value ([1]; 168 h)?
**A.** 1.34 % ID Th-227/g organ

**Q.** What about the “Th-227 in Tumor” value ([1]; 168 h) of the same compound?
**A.** 1.13 % ID Th-227/g organ

**Q.** What about the “Th-227 in prostate” value ([1]; 168 h) of the same compound?
**A.** 0.13 % ID Th-227/g organ

**Q.** What about the “Th-227 in Blood” value ([1]; 336 h) of the same compound?
**A.** 0.00 % ID Th-227/g organ

**Q.** And the “Th-227 in Femur and tibia” value ([1]; 336 h)?
**A.** 1.18 % ID Th-227/g organ

**Q.** And the “Th-227 in Kidneys” value ([1]; 336 h)?
**A.** 2.29 % ID Th-227/g organ

**Q.** And the “Th-227 in Liver” value ([1]; 336 h)?
**A.** 1.69 % ID Th-227/g organ

**Q.** And the “Th-227 in Salivary gland” value ([1]; 336 h)?
**A.** 0.42 % ID Th-227/g organ

**Q.** What about the “Th-227 in Spleen” value ([1]; 336 h) of the same compound?
**A.** 1.41 % ID Th-227/g organ

**Q.** What about the “Th-227 in Tumor” value ([1]; 336 h) of the same compound?
**A.** 0.74 % ID Th-227/g organ

**Q.** And the “Th-227 in prostate” value ([1]; 336 h)?
**A.** 0.22 % ID Th-227/g organ

**Q.** What about the “Proliferation assay on cancer cell lines by TTCs Default Pivot #3 IC50 [kBq/mL] C4-2 1000cells 375kBq/nmol (mean)” value (C4-2 cells) of the same compound?
**A.** 2.14 kBq/mL

**Q.** And the T/Carea ([2]; day 27, 2 x 400 + 2 x 750 kBq/kg weekly)?
**A.** 1.03

**Q.** What about the T/Carea ([2]; day 37, 2 x 400 + 3 x 750 kBq/kg) of the same compound?
**A.** 0.82

**Q.** And the “Proliferation assay on cancer cell lines by TTCs Default Pivot #3 IC50 [kBq/mL] VCap 4000cells 375kBq/nmol (mean)” value (VCaP cells)?
**A.** 3.07 kBq/mL

**Q.** What about the “Proliferation assay on cancer cell lines by TTCs Default Pivot #3 IC50 [kBq/mL] 22Rv1 1000cells 375kBq/nmol (mean)” value (22Rv1 cells) of the same compound?
**A.** 1.06 kBq/mL
